Series [1] deals with marine bacteria strain S27. Put plainly: disc inhibition assay, strain S27. The following applies: strain 27, 50 μg of compound per disc. In kind it is cell-based, Tenacibaculum lutimaris. On the procedure: (§1) The disc inhibition assay was used. This assay is a conventional method routinely used for screening antibacterial compounds to determine degree of susceptibility to antibacterial compounds. The diameter of the zone of inhibition is proportional to the degree of susceptibility of the bacterial strain. The compounds were tested against 13 strains of marine bacteria isolated from Singapore coastal waters.
(§2) 13 strains of marine bacteria were isolated from fouling communities located in the coastal waters around Singapore. These were characterized in earlier studies and reported in Teo et al. (U.S. patent application Ser. No. 11/265,833) and Choong et al (in prep). In addition, four reference bacterial strains were added tested: Escherichia coli (Strain K12, ATCC 15222), E. coli (strain DH5a), Pseudomonas aeruginosa (strain LMG 12228; ATCC 15692) and P. putida (strain KT2440; ATCC 47054). All the bacteria were also tested against five antibiotics: ampicillin (AMP), tetracycline (TETR), erythromycin (ERY), chloramphenicol (CHL) and streptomycin (STREP).
(§3) Disks comprising the compounds to be tested were prepared as follows. The antibacterial assay, the pure compounds were made up to a concentration of 2 mgml^−1 in DMSO. 25 μl of the stock was pipetted onto each 6 mm sterile disc (Macherey-Nagel #484000) to obtain 50 μg of compound per disc. Equivalent volume of DMSO was used inoculated for the control.
(§4) For all disk inhibition assays, bacterial cultures were grown in marine broth (Pronadisa #1217.00). Sterile swabs dipped into the cultures were used to inoculate Marine Agar plates with a bacterial lawn by smearing the culture over the surface. After inoculating the plates, discs with antibiotics, pharmaceuticals or control blanks were placed on each plate. Each concentration of antibiotic or pharmaceutical was tested with two replicates. After the disks were placed on the agar surface, plates were incubated overnight in the dark at 35° C. After incubation, plates were examined for zones of inhibition or clearing around control and treated disks. The diameter of any zone of clearing or inhibition was measured using Vernier calipers. There were two replicates per treatment, and the average was taken.

Series [2] relates to marine bacteria strain S28. Put plainly: disc inhibition assay, strain S28. The class given is cell-based, Arthrobacter protophormial. The note with it: strain 28, 50 μg of compound per disc. The protocol: as §1, §2, §3, §4
Series [3] has as its system marine bacteria strain S17. In words: disc inhibition assay, strain S17. The class given is cell-based, Gordonia terrae. The note with it: strain 17, 50 μg of compound per disc. The protocol: as §1, §2, §3, §4
Series [4] has as its system marine bacteria strain S14. In words: disc inhibition assay, strain S14. The note with it: strain 14, 50 μg of compound per disc. In kind it is cell-based, Vibrio probioticus. On the procedure:
as §1, §2
(§5) Disks comprising the compounds to be tested were prepared as follows. The antibacterial assay, the pure compounds were made up to a concentration of 2 mgml^−1 in DMSO. […] Equivalent volume of DMSO was used inoculated for the control.
as §4

The subject of series [5] is Stage II nauplii of Balanus amphitrite. In words: barnacle toxicity assay. The class given is in vivo. The protocol:
(§6) Pure compounds were suspended in DMSO and sonicated to obtain a stock solution of 50 mg ml^−1 in DMSO. This stock solution is stored at −20° C. in 4 ml amber screw cap vials. For the bioassays, a small volume of stock solution was added to 1 μm filtered seawater in a glass scintillation vial. This suspension was then sonicated around 10 minutes. Serial dilutions were generated to the required range of concentrations. Serial dilution of the equivalent amounts of DMSO in seawater was used as the control.
(§7) The barnacle bioassay method used follows from the method first introduced by Rittschof et al. (1992), and subsequently by other authors (Willemsen et al., 1998). This method is now standard practice for many antifouling screening of novel compounds.
Toxicity assays were modified from Rittschof et al. (1992). Stage II naupliar larvae used in tests were obtained from Balanus amphitrite adults collected from inter-tidal rock walls at Kranji mangrove, Singapore. Larvae were collected from a container of adults by attraction to a point source of light and transferred to 500 ml of fresh seawater. Next, larvae were re-concentrated with a fiber optic light and added to assays.
Duplicate assays were conducted in 2 ml glass vials (La Pha Pack® PN 11-14-0544) in 1 ml of filtered seawater for 22 to 24 hours. The assays were repeated for confirmation. There were two sets of controls, a blank control consisting of 3 tubes of seawater only, and DMSO control consisting of the equivalent dilution series with DMSO without compound). For the compounds, there were 3 tubes of each for each test concentration. The assay was initiated by addition of barnacle naupliar in 50 μl of seawater. After 22 to 24 hours of incubation at 25-27° C. solutions containing test animals were transferred to a Bogorov tray and scored as living or dead. Moribund larvae were scored as dead. Results were confirmed by repeating the assay. Data were combined and the concentration that caused 50% mortality (LD50) was calculated by probit analysis using a basic computer program (Libermann, 1983). If data were not appropriate for probit analysis, the LD50 was estimated from graphed data.

Series [6] concerns marine bacteria strain S4. Put plainly: disc inhibition assay, strain S4. In kind it is cell-based, Bacillus algicola. The following applies: strain 4, 50 μg of compound per disc. On the procedure: as §1, §2, §3, §4
The test system of series [7] is marine bacteria strain S3. In words: disc inhibition assay, strain S3. In kind it is cell-based, Erythrobacter aquimaris. The following applies: Qipengyuania aquimaris, S3, 24 h. On the procedure:
as §1, §2, §3, §4

Series [8] deals with marine bacteria strain S16. In words: disc inhibition assay, strain S16. The class given is cell-based, Pseudoalteromonas piscicida. The following applies: strain 16, 50 μg of compound per disc. The protocol: as §1, §2, §3, §4
Series [9] concerns marine bacteria strain S9. In words: disc inhibition assay, strain S9. The following applies: strain 9, 50 μg of compound per disc. The class given is cell-based, Bacillus algicola. On the procedure:
as §1, §2, §3, §4

In series [10] the test system is marine bacteria strain S18. In words: disc inhibition assay, strain S18. The class given is cell-based, Microbacterium esteraromaticum. The note with it: strain 18, 50 μg of compound per disc. The protocol: as §1, §2, §5, §4
Series [11] concerns marine bacteria strain S1. Put plainly: disc inhibition assay, strain S1. In kind it is cell-based, Rhodovulum iodosum. The note with it: strain 1, 50 μg of compound per disc. On the procedure:
as §1, §2, §3, §4

Series [12] concerns marine bacteria strain S10. In words: disc inhibition assay, strain S10. In kind it is cell-based, Halobacillus trueperi. The following applies: strain 10, 50 μg of compound per disc. On the procedure: as §1, §2, §3, §4
The test system of series [13] is cyprids of Balanus amphitrite. In words: barnacle settlement assay. In kind it is in vivo. The note with it: for IC50: Amphibalanus amphitrite, 24 h, concentration that caused 50% settlement inhibition, 24 hours, cyprids; for percentage of cyprids that settled: after 24 hours incubation, averaged over two trials. The protocol:
as §6, §7
Barnacle settlement assays were based on methodology from Rittschof et al. (1992). Barnacle larvae from field-collected adults were reared on an algal mixture of 1:1 v/v of Tetraselmis suecica and Chaetoceros muelleri at 25° C., at approximately 5×10^5 cells per ml density. On this regime, larvae metamorphose to cyprids in 5 days. These cyprids were aged at 4° C. for 2-3 days, and 45-70% settlement after 24 hours (Willemsen et al., 1998).
Settlement tests were conducted in 7 ml neutral glass vials (Samco® T1 03N1) 34 mm by 23 mm diameter, with 20-40 cyprids per well. Test solutions were made up to twice the required final concentration. 0.5 ml of test solution was added into each well, and cyprids were transferred into each well in 0.5 ml of seawater. Assays were done in triplicate. As before, there were two sets of controls, a blank control consisting 3 tubes of seawater only, and DMSO control consisting of the equivalent dilution series with DMSO without compound. After 24 hours, larvae that had attached and metamorphosed were enumerated and the result expressed as percentage settlement. Larvae not attached were scored as not settled. The assays were repeated and the concentration that caused 50% settlement inhibition (ED50) was determined by pro bit analysis using a basic computer program (Lieberman, 1983), or by estimation from graphed data.

The subject of series [14] is marine bacteria strain S30. In words: disc inhibition assay, strain S30. In kind it is cell-based, Bacillus borophilicus. The following applies: strain 30, 50 μg of compound per disc. On the procedure: as §1, §2, §3, §4
In series [15] the test system is marine bacteria strain S29. In words: disc inhibition assay, strain S29. The class given is cell-based, Bacillus hwajinpoensis. The note with it: strain 29, 50 μg of compound per disc. On the procedure: as §1, §2, §3, §4
The mark [16] stands for this setting: Table 3(a), concentration that caused 50% mortality, 22 to 24 hours, Stage II nauplii.
The mark [17] stands for this setting: Table 3(a), read-out: ED50 (the source's name).
Setting [18] is: Table 3(b), highest concentration tested 25 μg/ml.

The structures appear in SMILES notation. Converted amounts (≈) assume the structure as drawn. Read-outs that look alike come from different tables or passages of the source.

As usually defined, the zone of inhibition is the size of the clear area around the sample on an inoculated plate.

For the molecule `CN(C)C(=O)C(c1ccccc1)c1ccccc1` [Compound 3.1, diphenamid, reference compound], the zone of inhibition entry in series [1], in series [2], in series [3], in series [4], in series [6] and in series [8] was “−” in each case. Also, the zone of inhibition result in series [9], in series [10], in series [11], in series [12], in series [14] and in [15] was “−” each time. This molecule yielded an LD50 in [5] (setting [16]) greater than 50 µg/mL. In series [7], this molecule gave a zone of inhibition at 50 µg/disc of 2 to 5 mm. Moreover, the IC50 in series [13] (read-out: ED50, Table 3(a)) stood at 15.1 µg/mL (≈ 63.1 µM).

In turn, `CN1CCN(C(=O)C(c2ccccc2)c2ccccc2)CC1` [Compound 4.2, 1-(4-Methylpiperazin-1-yl)-2,2-diphenylethanone] showed an LD50 in [5] (setting [16]) of 14.32 µg/mL. Moreover, the “anti-settlement activity in words” value in series [13] was “eliminated anti-settlement behaviour”. Also, the IC50 in series [13] (setting [17]) was greater than 50 µg/mL.

As to `O=C(C(c1ccccc1)c1ccccc1)N1CCC(CCO)CC1` [Compound 9.2], the LD50 in [5] (setting [16]) was 49.24 µg/mL. The IC50 in series [13] (setting [17]) is greater than 50 µg/mL.

For `CCCCC(CCCC)C(=O)N1CCCCC1` [Compound 12.2, 2-Butyl-1-(piperidin-1-yl)hexan-1-one], the zone of inhibition at 50 µg/disc lay in the range of 2 to 5 mm in series [1] (Tenacibaculum lutimaris, S27, 24 h, read-out: zone of inhibition); 2 to 5 mm in series [2] (Arthrobacter, S28, 24 h, read-out: zone of inhibition); 2 to 5 mm in [3] (Gordonia terrae, S17, 24 h, read-out: zone of inhibition); 2 to 5 mm in [6] (Guptibacillus algicola, S4, 24 h, read-out: zone of inhibition); 5 to 10 mm in [7] (strain 3, 50 μg of compound per disc, read-out: zone of inhibition); 2 to 5 mm in [9] (Guptibacillus algicola, S9, 24 h, read-out: zone of inhibition). The zone of inhibition at 50 µg/disc in series [10] (Microbacterium esteraromaticum, S18, 24 h, read-out: zone of inhibition) was in the range of 5 to 10 mm; in series [12] (Halobacillus trueperi, S10, 24 h, read-out: zone of inhibition), 2 to 5 mm; in series [14] (Bacillus, S30, 24 h, read-out: zone of inhibition), 2 to 5 mm; in series [15] (Guptibacillus hwajinpoensis, S29, 24 h, read-out: zone of inhibition), 2 to 5 mm. Besides, the zone of inhibition entry in [4], in series [8] and in series [11] was “−” in each case. For the same molecule, the “percentage of cyprids that settled” value in [13] (0.2 ug/ml) is 8.94%; in series [13] (1 ug/ml), 8.42%; in series [13] (5 ug/ml) it was 8.37%; in series [13] (25 ug/ml), 0%.

`CCCCCCC(CCCC)C(=O)N1CCCCC1` (stereo not shown) [Compound 12.8] returned an LD50 in series [5] (setting [18]) of 3.35 µg/mL. Besides, the “percentage of cyprids that settled” value in [13] (0.2 ug/ml) stood at 25.82%; in series [13] (1 ug/ml), 8.62%; in [13] (5 ug/ml), 0%; in series [13] (25 ug/ml), 0%. Moreover, the IC50 in series [13] (setting [17]) was less than 10 µg/mL.

In the case of `CCCCCCCCCCC(CCCC)C(=O)N1CCCCC1` (stereo not shown) [Compound 12.9], the LD50 in series [5] (setting [18]) was greater than 25 µg/mL. Moreover, the “percentage of cyprids that settled” value in series [13] (0.2 ug/ml) was 28.14%; in series [13] (1 ug/ml) it was 10.56%; in series [13] (5 ug/ml) it was 1.94%; in series [13] (25 ug/ml), 1.32%.

In [5] (setting [18]), `CCCCCCCCCCC(CCCCCCCC)C(=O)N1CCCCC1` (stereo not shown) [Compound 12.10] returned an LD50 greater than 25 µg/mL. The “percentage of cyprids that settled” value in series [13] (0.2 ug/ml) amounted to 12.5%; in [13] (1 ug/ml), 13.00%; in series [13] (5 ug/ml) it was 11.40%; in series [13] (25 ug/ml), 17.88%.

`CCCCCCC(C(=O)N1CCCCC1)c1ccccc1` (stereo not shown) [Compound 12.11] came in with an LD50 in series [5] (setting [18]) greater than 25 µg/mL.

Consider `CCCCCCC(CCCCCC)C(=O)N1CCCCC1` [Compound 12.12], for which the LD50 in [5] (setting [18]) was 0.2 to 1 µg/mL.

(Values after patent US20160311788A1, “Antifouling Compounds And Use Thereof” (National University of Singapore, priority 2008, published 2016).)
